Results taken from patent US20080269052A1, “USE of PYRIDINE-2-OXY-3-CARBOXAMIDES AS SAFENERS” (priority 2007, published 2008).

Tests used:
Type in all cases: in vivo
[1] = tested on: economically important harmful plants (weed grases and broad-leaved weeds); assay: Pre-emergence herbicide action against harmful plants in the presence of safener; settings: in combination with safener
Description: (§1) The damage to the plants is scored visually using a scale of 0-100%, in comparison to control plants: 0%=no noticeable effect compared to the untreated plant 100%=the treated plants dies. Seeds or rhizome pieces of monocotyledonous and dicotyledonous weed plants and crop plants were placed in sandy loam soil in plastic pots and covered with soil. The herbicide/safener active compound combinations according to the invention, formulated as water-soluble powders or suspensions, and in parallel tests the individual active compounds formulated in a corresponding manner, were then, at various dosages at a water application rate of 300 to 800 l/ha (converted), applied to the surface of the covering soil. After the treatment, the pots were placed in the greenhouse and kept under good growth conditions for the weeds and the crop plants. Visual scoring of the plant damage or emergence damage was carried out after the test plants had emerged after a test period of 2 to 4 weeks, in comparison to untreated controls.

[2] = tested on: economically important harmful plants (weed grases and broad-leaved weeds); assay: Post-emergence herbicide action against harmful plants in the presence of safener; settings: in combination with safener
Description: (§2) The damage to the plants is scored visually using a scale of 0-100%, in comparison to control plants: 0%=no noticeable effect compared to the untreated plant 100%=the treated plants dies. Seeds or rhizome pieces of monocotyledonous and dicotyledonous harmful plants and crop plants are placed in sandy loam soil in plastic pots, covered with soil and cultivated in the greenhouse under good growth conditions. Alternatively, harmful plants encountered in paddy rice cultivation are cultivated in pots in which the surface of the soil is covered by up to 2 cm of water. Ten to twenty days after sowing, the test plants are treated at the one to three-leaf stage. The herbicide/safener active compound combinations according to the invention, formulated as water-soluble powders or suspensions, and in parallel tests the individual active compounds formulated in a corresponding manner, are sprayed at various dosages at a water application rate of 300 l/ha (converted) onto the green parts of the plants, and, after the test plants were left to stand in the greenhouse for about 2 to 3 weeks under optimum growth conditions, the effect of the preparations is scored visually in comparison to untreated controls. In the case of rice or harmful plants encountered in the cultivation of rice, the active compounds are also added directly to the irrigation water (application analogously to the so-called granule application) or sprayed onto the plants and into the irrigation water.

[3] = tested on: Triticum aestivum (spring wheat); assay: Post-emergence herbicide action and safener action, spring wheat; settings: TRZAS
Description: as §2

Zea mays (corn) [4] = assay: Seed treatment with safeners, corn; settings: ZEAMX
Description: (§3) The damage to the plants is scored visually using a scale of 0-100%, in comparison to control plants: 0%=no noticeable effect compared to the untreated plant 100%=the treated plants dies. Seeds of crop plants were mixed in bottles with the safeners according to the invention, formulated as suspension or emulsion concentrates, and water, and the mixture was shaken well so that the seeds were coated evenly with the formulation of the safener in question. The seeds or the emerged plants were then tested with herbicides in the pre- or post-emergence method according to the tests of examples 3.3 and 3.2, respectively.

Zea mays (corn) [5] = assay: Pre-emergence herbicide action and safener action, corn; settings: ZEAMX
Description: as §1

Oryza sativa (rice) [6] = assay: Pre-emergence herbicide action and safener action, rice; settings: herbicide (2.2.16) oxadiazon 400 g of AS/ha, safener (Ia) 75 g of AS/ha, ORYSA
Description: as §1

Hordeum vulgare (barley) [7] = assay: Post-emergence herbicide action and safener action, barley; settings: safener (Ia) 100 g of AS/ha, HORVU
Description: as §2

Hordeum vulgare (barley) [8] = assay: Seed treatment with safeners, barley; settings: HORVU
Description: as §3

Oryza sativa (rice) [9] = assay: Post-emergence herbicide action and safener action, rice; settings: ORYSA
Description: as §2

Zea mays (corn) [10] = assay: Post-emergence herbicide action and safener action, corn; settings: safener (Ia) 50 g of AS/ha, ZEAMX
Description: as §2

[11] = tested on: Triticum aestivum (spring wheat); assay: Seed treatment with safeners, spring wheat; settings: safener (Ia) 1.0 g of AS/kg seed, TRZAS
Description: as §3

[12] = herbicide (1.2.1.58) thiencarbazone-methyl 15 g of AS/ha

## NC(=O)c1ccc(C(F)(F)Cl)[nH]c1=O [safener (Ib), 2-oxo-6-difluorochloromethyl-1,2-dihydropyridine-3-carboxamide]
[1]
  action of the respective herbicide against economically important harmful plants: not, or not substantially, adversely affected
[2]
  action of the herbicide against economically important harmful plants: not, or not substantially, adversely affected

## NC(=O)c1ccc(C(F)(F)F)[nH]c1=O [safener (Ia), 2-oxo-6-trifluoromethyl-1,2-dihydropyridine-3-carboxamide]
[3]; herbicide (1.1.1.10) tembotrione 20 g of AS/ha, safener (Ia) 80 g of AS/ha
  Reduction of the harmful effect: category A (category A = 50-100% reduction of the harmful action)
[3]; herbicide (1.1.2.10) picolinafen 200 g of AS/ha, safener (Ia) 100 g of AS/ha
  Reduction of the harmful effect: category A (category A = 50-100% reduction of the harmful action)
[3]; herbicide (1.2.1.14) mesosulfuron-methyl 40 g of AS/ha, safener (Ia) 80 g of AS/ha
  Reduction of the harmful effect: category A (category A = 50-100% reduction of the harmful action)
[3]; herbicide (1.2.1.58) thiencarbazone-methyl 15 g of AS/ha, safener (Ia) 100 g of AS/ha
  Reduction of the harmful effect: category A (category A = 50-100% reduction of the harmful action)
[3]; herbicide (1.3.1.20c) fenoxaprop-P-ethyl 100 g of AS/ha, safener (Ia) 20 g of AS/ha
  Reduction of the harmful effect: category A (category A = 50-100% reduction of the harmful action)
[3]; herbicide (2.2.12) flumioxazin 100 g of AS/ha, safener (Ia) 50 g of AS/ha
  Reduction of the harmful effect: category B (category B = 20-49% reduction of the harmful action)
Zea mays (corn) [4]; herbicide (1.1.1.22) isoxaflutole 200 g of AS/ha, safener (Ia) 0.5 g of AS/kg seed
  Reduction of the harmful effect: category A (category A = 50-100% reduction of the harmful action)
Zea mays (corn) [4]; herbicide (1.2.1.58) thiencarbazone-methyl 5 g of AS/ha, safener (Ia) 1.0 g of AS/kg seed
  Reduction of the harmful effect: category A (category A = 50-100% reduction of the harmful action)
Zea mays (corn) [5]; herbicide (1.1.1.22) isoxaflutole 300 g of AS/ha, safener (Ia) 300 g of AS/ha
  Reduction of the harmful effect: category A (category A = 50-100% reduction of the harmful action)
Zea mays (corn) [5]; herbicide (1.4.4.17) flufenacet 125 g of AS/ha, safener (Ia) 150 g of AS/ha
  Reduction of the harmful effect: category A (category A = 50-100% reduction of the harmful action)
Oryza sativa (rice) [6]
  Reduction of the harmful effect: category B (category B = 20-49% reduction of the harmful action)
Hordeum vulgare (barley) [7]; herbicide (1.1.1.10) tembotrione 20 g of AS/ha
  Reduction of the harmful effect: category A (category A = 50-100% reduction of the harmful action)
Hordeum vulgare (barley) [7]; [12]
  Reduction of the harmful effect: category A (category A = 50-100% reduction of the harmful action)
Hordeum vulgare (barley) [7]; herbicide (1.3.1.20c) fenoxaprop-P-ethyl 400 g of AS/ha
  Reduction of the harmful effect: category A (category A = 50-100% reduction of the harmful action)
[1]
  action of the respective herbicide against economically important harmful plants: not, or not substantially, adversely affected
Hordeum vulgare (barley) [8]; herbicide (1.2.1.14) mesosulfuron-methyl 30 g of AS/ha, safener (Ia) 0.5 g of AS/kg seed
  Reduction of the harmful effect: category A (category A = 50-100% reduction of the harmful action)
Hordeum vulgare (barley) [8]; herbicide (1.2.1.58) thiencarbazone-methyl 15 g of AS/ha, safener (Ia) 1.0 g of AS/kg seed
  Reduction of the harmful effect: category A (category A = 50-100% reduction of the harmful action)
Oryza sativa (rice) [9]; herbicide (1.1.1.4) mesotrione 400 g of AS/ha, safener (Ia) 75 g of AS/ha
  Reduction of the harmful effect: category A (category A = 50-100% reduction of the harmful action)
Oryza sativa (rice) [9]; herbicide (1.1.1.4) mesotrione 600 g of AS/ha, applied to the water around the test plants (paddy rice conditions), safener (Ia) 75 g of AS/ha
  Reduction of the harmful effect: category A (category A = 50-100% reduction of the harmful action)
Oryza sativa (rice) [9]; herbicide (1.2.1.15) foramsulfuron 15 g of AS/ha, safener (Ia) 100 g of AS/ha
  Reduction of the harmful effect: category B (category B = 20-49% reduction of the harmful action)
Oryza sativa (rice) [9]; herbicide (1.2.1.58) thiencarbazone-methyl 10 g of AS/ha, safener (Ia) 300 g of AS/ha
  Reduction of the harmful effect: category A (category A = 50-100% reduction of the harmful action)
Oryza sativa (rice) [9]; herbicide (1.2.1.62b) bispyribac-sodium 200 g of AS/ha, safener (Ia) 75 g of AS/ha
  Reduction of the harmful effect: category A (category A = 50-100% reduction of the harmful action)
Oryza sativa (rice) [9]; herbicide (1.3.1.20c) fenoxaprop-P-ethyl 100 g of AS/ha, safener (Ia) 300 g of AS/ha
  Reduction of the harmful effect: category A (category A = 50-100% reduction of the harmful action)
Oryza sativa (rice) [9]; herbicides (1.2.1.14) mesosulfuron-methyl + (1.2.1.11b) iodosulfuron-methyl-sodium 4 + 0.8 g of AS/ha, safener (Ia) 150 g of AS/ha
  Reduction of the harmful effect: category A (category A = 50-100% reduction of the harmful action)
Zea mays (corn) [10]; herbicide (1.2.1.11b) iodosulfuron-methyl-sodium 100 g of AS/ha
  Reduction of the harmful effect: category B (category B = 20-49% reduction of the harmful action)
Zea mays (corn) [10]; herbicide (1.2.1.48) imazethapyr 100 g of AS/ha
  Reduction of the harmful effect: category A (category A = 50-100% reduction of the harmful action)
Zea mays (corn) [10]; herbicide (2.2.12) flumioxazin 50 g of AS/ha
  Reduction of the harmful effect: category A (category A = 50-100% reduction of the harmful action)
[11]; herbicide (1.2.1.14) mesosulfuron-methyl 30 g of AS/ha
  Reduction of the harmful effect: category A (category A = 50-100% reduction of the harmful action)
[11]; [12]
  Reduction of the harmful effect: category A (category A = 50-100% reduction of the harmful action)
[2]
  action of the herbicide against economically important harmful plants: not, or not substantially, adversely affected

## NC(=O)c1ccc(C(F)F)nc1O [safener (Ic), 2-oxo-6-difluoromethyl-1,2-dihydropyridine-3-carboxamide]
[1]
  action of the respective herbicide against economically important harmful plants: not, or not substantially, adversely affected
[2]
  action of the herbicide against economically important harmful plants: not, or not substantially, adversely affected
